Data published in US10370410B2, “Cancer cell-targeting peptide and use thereof” (KYUNGPOOK NATIONAL UNIVERSITY INDUSTRY-ACADEMIC COOPERATION …, priority 2015, dated 2019).
Ends that are not written are not given here. FPI774 = near-infrared fluorescent reagent (label)

What was measured:
[1] = test system: K-ras transgenic tumor cells; assay: Phage library screening and sequence analysis of phage clones; format: in vivo, mouse; details: phage clones from 4th and 5th screening rounds, sequence analysis
Experimental: To screen peptides having specificity to K-ras transgenic tumor cells in the T7 CX7C phage library prepared above, a random peptide phage library (1×10^11 pfu) were injected into a K-ras^LA2 transgenic mouse via the tail vein.
After 15 minutes, the tumor was excised from the lungs of the K-ras^LA2 transgenic mouse, finely ground, and added to a DMEM medium to prepare a cell suspension, which was then passed through a70-M filter (DAKO, Carpinteria, Calif., USA). The phages bound to the tumor were reacted with 1% NP-40 for 10 minutes for separation. Afterwards, the separated phages were recovered by treatment with cultured BL21 host bacteria. The phages that were recovered by the BL21 host bacteria and amplified were injected into a K-ras^LA2 transgenic mouse via the tail vein. Such a round of the screening of phage library was repeated five times. […] At the final 5th round, the multiplicative […] of the phage clones increased 162 times the first round. Afterwards, from the 4th round and the 5th rounds, a total of 49 clones were randomly selected for the sequencing.
DNA inserts of each of the 49 phage clones collected in Example 2-2 were sequenced by an automated DNA sequencer (Genotech Inc., Daegeon and SolGent Inc. Daegu) using a 96 pill primer (New England Biolabs). To find amino acid motifs shared between the common sequences or peptides, amino acid sequences deduced based on the nucleotide sequences were was aligned by using the Clustal W program. To find proteins having significant homology, NCBI BLAST search was performed with respect to peptide sequences. As a result of the sequence analysis of the peptides, four phage clones with high affinity for the K-ras transgenic tumor cells were confirmed, and the peptide sequences thereof were as follows: CKSRKDGAC (4R-3, SEQ ID NO: 1), CMPKRPSSC (4R-16, SEQ ID NO: 2), CRGTAEG (4R-21, SEQ ID NO: 3), and CRQTKN (5R-7, SEQ ID NO: 4).

[2] = test system: tumors of the K-ras^LA2 transgenic mouse; assay: Near-infrared fluorescence imaging of FPI774-labeled tumor-targeting peptides; format: in vivo; details: FPI774-labeled peptide, tail vein, 4 hours, FIG. 5
Experimental: To validate whether the peptides prepared in <Example 2-5> in the present invention were specifically transferred to the tumor cells of the K-ras^LA2 transgenic mouse, a control peptide and a peptide labeled with FPI774 and having SEQ ID NO: 1 to SEQ ID NO: 4 were injected into the K-ras^LA2 transgenic mouse and a normal mouse via the tail vein of each mouse. After 4 hours, the mice were sacrificed, and each organ thereof was extracted for the near-infrared fluorescence imaging using the eXplore Optix system (ART Inc, Montreal, Canada).

[3] = test system: tumor of K-ras^LA2 transgenic mouse; assay: Binding capability of phage clones to tumor (phage titer); format: in vivo; details: phage clone expressing the peptide administered into K-ras^LA2 transgenic mouse; FIG. 4B
Experimental: The phage clones that express each of the peptides were administered into the K-ras^LA2 transgenic mouse, and bound to tumor, and a titer of the phage clones was measured.

[4] = test system: tumors of K-ras^LA2 transgenic mouse; assay: Target transfer capability of FPI774-CRQTKN peptide (near-infrared organ imaging); format: in vivo; details: tail vein, 4 hours; for fluorescence of FPI774 in the lungs: FIG. 6A
Experimental: To confirm the binding capability of the CRQTKN peptide (SEQ ID NO: 4) to the K-ras tumors, the FPI774-CRQTKN (SEQ ID NO: 13) peptide, which is a peptide labeled with a near-infrared fluorescent reagent FPI774, and a control peptide were administered into a K-ras^LA2 transgenic mouse and a normal mouse via the tail vein of each mouse.
After 4 hours, the mice were scarified, and each organ thereof was extracted for the near-infrared fluorescence imaging using the eXplore Optix system (ART Inc, Montreal, Canada).

CRQTKN: tumor-targeting peptide CRQTKN identified by phage library screening (5R-7 peptide)
affinity of phage clones for the K-ras transgenic tumor cells [1]: high affinity | transfer to the tumors (near-infrared fluorescence) [2]: most strongly transferred

CRGTAEG (4R-21 peptide) [tumor-targeting peptide CRGTAEG identified by phage library screening]
affinity of phage clones for the K-ras transgenic tumor cells [1]: high affinity

CKSRKDGAC (4R-3 peptide) [tumor-targeting peptide … identified by phage library screening; tested as phage clone and as FPI774-labeled peptide]
affinity of phage clones for the K-ras transgenic tumor cells [1]: high affinity | binding capability of phage clone to the tumor (titer) [3]: greatest binding capability

FPI774-CRQTKN: CRQTKN peptide labeled with a near-infrared fluorescent reagent FPI774
fluorescence of FPI774 in the lungs ([4]; K-ras^LA2 transgenic mouse): strongly expressed | fluorescence of FPI774 in the lungs ([4]; normal mouse): not expressed | fluorescence of FPI774 in organs other than the lungs (kidney and liver) ([4]; FIG. 6B): not observed in general

CMPKRPSSC (4R-16 peptide) [tumor-targeting peptide … identified by phage library screening]
affinity of phage clones for the K-ras transgenic tumor cells [1]: high affinity
